Key:
Assay type in all cases: in vivo
wheat [1] = assay: Test Example 3: soil treatment, effect on crop; e: wheat; settings: treatment dosage 315 g/ha
Outline: (§1)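 Crop and weed responses were judged three weeks after a uniform surface spray of the water-diluted emulsion at the given g/ha rate. Seeds sat beneath about 1.5 cm of sterilized diluvial soil, and boxes stood in a greenhouse at 25 to 30° C.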

fig-leafed goosefoot [2] = assay: Test Example 4: weedkilling efficacy by foliar treatment; M: fig-leafed goosefoot; settings: treatment dosage 315 g/ha
Outline: (§2)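 Seeds are spot-sown into sterilized diluvial soil and covered with about 1.5 cm of soil. After 14 days' greenhouse growth at 25 to 30° C, plants are sprayed on stems and leaves with diluted emulsion at the stated g/ha rate, then scored at 3 weeks.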

Italian ryegrass [3] = assay: Test Example 4: weedkilling efficacy by foliar treatment; I: Italian ryegrass; settings: treatment dosage 315 g/ha
Outline: as §2

black-grass [4] = assay: Test Example 4: weedkilling efficacy by foliar treatment; H: black-grass; settings: treatment dosage 315 g/ha
Outline: as §2

black-grass [5] = assay: Test Example 3: weedkilling efficacy through soil treatment; H: black-grass; settings: treatment dosage 315 g/ha
Outline: as §1

bulrush [6] = assay: Test Example 2: weedkilling efficacy, growth period weed treatment in the submerged state; B: bulrush; settings: treatment dosage 252 g/ha
Outline: (§3)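 First, alluvial soil in pots is flooded to 4 cm and mixed seed is sown. Next, plants grow in a greenhouse at 25 to 30° C until the 1-2 leaf stage. Then diluted emulsion is applied onto the water surface at the given g/ha rate, and injury is assessed after 3 weeks.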

directly sown rice [7] = assay: Test Example 3: soil treatment, effect on crop; b: directly sown rice; settings: treatment dosage 315 g/ha
Outline: as §1

redroot pigweed [8] = assay: Test Example 4: weedkilling efficacy by foliar treatment; L: redroot pigweed; settings: treatment dosage 315 g/ha
Outline: as §2

redroot pigweed [9] = assay: Test Example 3: weedkilling efficacy through soil treatment; L: redroot pigweed; settings: treatment dosage 315 g/ha
Outline: as §1

catchweed [10] = assay: Test Example 4: weedkilling efficacy by foliar treatment; O: catchweed; settings: treatment dosage 315 g/ha
Outline: as §2

Indian mallow [11] = assay: Test Example 4: weedkilling efficacy by foliar treatment; K: Indian mallow; settings: treatment dosage 315 g/ha
Outline: as §2

corn [12] = assay: Test Example 3: soil treatment, effect on crop; c: corn; settings: treatment dosage 315 g/ha
Outline: as §1

wild oat [13] = assay: Test Example 3: weedkilling efficacy through soil treatment; G: wild oat; settings: treatment dosage 315 g/ha
Outline: as §1

wheat [14] = assay: Test Example 4: foliar treatment, effect on crop; e: wheat; settings: treatment dosage 315 g/ha
Outline: as §2

chickweed [15] = assay: Test Example 4: weedkilling efficacy by foliar treatment; N: chickweed; settings: treatment dosage 315 g/ha
Outline: as §2

oval-leafed pondweed [16] = assay: Test Example 1: weedkilling efficacy, preemergent weed treatment in the submerged state; C: oval-leafed pondweed; settings: treatment dosage 252 g/ha
Outline: (§4)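 Emulsion diluted with water to the specified per-hectare dosage is applied onto flood water (4 cm) over alluvial soil on the sowing day, with barnyard grass, bulrush and pondweed seeded and rice (2.5-leaf) transplanted; plants grow at 25–30 °C and are rated at 3 weeks.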

wild oat [17] = assay: Test Example 4: weedkilling efficacy by foliar treatment; G: wild oat; settings: treatment dosage 315 g/ha
Outline: as §2

crabgrass [18] = assay: Test Example 4: weedkilling efficacy by foliar treatment; D: crabgrass; settings: treatment dosage 315 g/ha
Outline: as §2

Italian ryegrass [19] = assay: Test Example 3: weedkilling efficacy through soil treatment; I: Italian ryegrass; settings: treatment dosage 315 g/ha
Outline: as §1

Indian mallow [20] = assay: Test Example 3: weedkilling efficacy through soil treatment; K: Indian mallow; settings: treatment dosage 315 g/ha
Outline: as §1

beet [21] = assay: Test Example 4: foliar treatment, effect on crop; f: beet; settings: treatment dosage 315 g/ha
Outline: as §2

green foxtail [22] = assay: Test Example 3: weedkilling efficacy through soil treatment; E: green foxtail; settings: treatment dosage 315 g/ha
Outline: as §1

catchweed [23] = assay: Test Example 3: weedkilling efficacy through soil treatment; O: catchweed; settings: treatment dosage 315 g/ha
Outline: as §1

birds-eye speedwell [24] = assay: Test Example 4: weedkilling efficacy by foliar treatment; p: birds-eye speedwell; settings: treatment dosage 315 g/ha
Outline: as §2

fig-leafed goosefoot [25] = assay: Test Example 3: weedkilling efficacy through soil treatment; M: fig-leafed goosefoot; settings: treatment dosage 315 g/ha
Outline: as §1

barnyard grass [26] = assay: Test Example 2: weedkilling efficacy, growth period weed treatment in the submerged state; A: barnyard grass; settings: treatment dosage 252 g/ha
Outline: as §3

corn [27] = assay: Test Example 4: foliar treatment, effect on crop; c: corn; settings: treatment dosage 315 g/ha
Outline: as §2

transplanted rice = assay: Test Example 1: preemergent weed treatment in the submerged state, effect on crop; a: transplanted rice; settings: treatment dosage 252 g/ha
Outline: as §4

barnyard grass [28] = assay: Test Example 1: weedkilling efficacy, preemergent weed treatment in the submerged state; A: barnyard grass; settings: treatment dosage 252 g/ha
Outline: as §4

bulrush [29] = assay: Test Example 1: weedkilling efficacy, preemergent weed treatment in the submerged state; B: bulrush; settings: treatment dosage 252 g/ha
Outline: as §4

birds-eye speedwell [30] = assay: Test Example 3: weedkilling efficacy through soil treatment; p: birds-eye speedwell; settings: treatment dosage 315 g/ha
Outline: as §1

chickweed [31] = assay: Test Example 3: weedkilling efficacy through soil treatment; N: chickweed; settings: treatment dosage 315 g/ha
Outline: as §1

directly sown rice [32] = assay: Test Example 4: foliar treatment, effect on crop; b: directly sown rice; settings: treatment dosage 315 g/ha
Outline: as §2

crabgrass [33] = assay: Test Example 3: weedkilling efficacy through soil treatment; D: crabgrass; settings: treatment dosage 315 g/ha
Outline: as §1

soybean [34] = assay: Test Example 3: soil treatment, effect on crop; d: soybean; settings: treatment dosage 315 g/ha
Outline: as §1

green foxtail [35] = assay: Test Example 4: weedkilling efficacy by foliar treatment; E: green foxtail; settings: treatment dosage 315 g/ha
Outline: as §2

soybean [36] = assay: Test Example 4: foliar treatment, effect on crop; d: soybean; settings: treatment dosage 315 g/ha
Outline: as §2

beet [37] = assay: Test Example 3: soil treatment, effect on crop; f: beet; settings: treatment dosage 315 g/ha
Outline: as §1

oval-leafed pondweed [38] = assay: Test Example 2: weedkilling efficacy, growth period weed treatment in the submerged state; C: oval-leafed pondweed; settings: treatment dosage 252 g/ha
Outline: as §3

Row | Structure (SMILES) | e (wheat) effect on crop grade (wheat [1]) | M (fig-leafed goosefoot) weedkilling efficacy grade (fig-leafed goosefoot [2]) | I (Italian ryegrass) weedkilling efficacy grade (Italian ryegrass [3]) | H (black-grass) weedkilling efficacy grade (black-grass [4]) | H (black-grass) weedkilling efficacy grade (black-grass [5]) | B (bulrush) weedkilling efficacy grade (bulrush [6]) | b (directly sown rice) effect on crop grade (directly sown rice [7]) | L (redroot pigweed) weedkilling efficacy grade (redroot pigweed [8]) | L (redroot pigweed) weedkilling efficacy grade (redroot pigweed [9]) | O (catchweed) weedkilling efficacy grade (catchweed [10]) | K (Indian mallow) weedkilling efficacy grade (Indian mallow [11]) | c (corn) effect on crop grade (corn [12]) | G (wild oat) weedkilling efficacy grade (wild oat [13]) | e (wheat) effect on crop grade (wheat [14]) | N (chickweed) weedkilling efficacy grade (chickweed [15]) | C (oval-leafed pondweed) weedkilling efficacy grade (oval-leafed pondweed [16]) | G (wild oat) weedkilling efficacy grade (wild oat [17]) | D (crabgrass) weedkilling efficacy grade (crabgrass [18]) | I (Italian ryegrass) weedkilling efficacy grade (Italian ryegrass [19]) | K (Indian mallow) weedkilling efficacy grade (Indian mallow [20]) | also measured
1 | COc1ccnc(NC(=O)C(C)(C)N2COC(C)=C(c3ccccc3)C2=O)c1 [B-2-63] | 0 (weed kill ratio 5% or less (practically no effect)) | 3 (weed kill ratio 40% or more, less than 70%) | 1 (weed kill ratio 5% or more, less than 20%) | 0 (weed kill ratio 5% or less (practically no effect)) | 1 (weed kill ratio 5% or more, less than 20%) | 4 (weed kill ratio 70% or more, less than 90%) | 0 (weed kill ratio 5% or less (practically no effect)) | 0 (weed kill ratio 5% or less (practically no effect)) | 1 (weed kill ratio 5% or more, less than 20%) | 2 (weed kill ratio 20% or more, less than 40%) | 0 (weed kill ratio 5% or less (practically no effect)) | 0 (weed kill ratio 5% or less (practically no effect)) | 2 (weed kill ratio 20% or more, less than 40%) | 0 (weed kill ratio 5% or less (practically no effect)) | 2 (weed kill ratio 20% or more, less than 40%) | 4 (weed kill ratio 70% or more, less than 90%) | 0 (weed kill ratio 5% or less (practically no effect)) | 3 (weed kill ratio 40% or more, less than 70%) | 3 (weed kill ratio 40% or more, less than 70%) | 0 (weed kill ratio 5% or less (practically no effect)) | f (beet) effect on crop grade (beet [21]): 0 (weed kill ratio 5% or less (practically no effect)); E (green foxtail) weedkilling efficacy grade (green foxtail [22]): 4 (weed kill ratio 70% or more, less than 90%); O (catchweed) weedkilling efficacy grade (catchweed [23]): 3 (weed kill ratio 40% or more, less than 70%); P (birds-eye speedwell) weedkilling efficacy grade (birds-eye speedwell [24]): 1 (weed kill ratio 5% or more, less than 20%); M (fig-leafed goosefoot) weedkilling efficacy grade (fig-leafed goosefoot [25]): 3 (weed kill ratio 40% or more, less than 70%); A (barnyard grass) weedkilling efficacy grade (barnyard grass [26]): 3 (weed kill ratio 40% or more, less than 70%); c (corn) effect on crop grade (corn [27]): 0 (weed kill ratio 5% or less (practically no effect)); a (transplanted rice) effect on crop grade (transplanted rice): 0 (weed kill ratio 5% or less (practically no effect)); A (barnyard grass) weedkilling efficacy grade (barnyard grass [28]): 5 (weed kill ratio 90% or more, (practically complete withering)); B (bulrush) weedkilling efficacy grade (bulrush [29]): 5 (weed kill ratio 90% or more, (practically complete withering)); P (birds-eye speedwell) weedkilling efficacy grade (birds-eye speedwell [30]): 4 (weed kill ratio 70% or more, less than 90%); N (chickweed) weedkilling efficacy grade (chickweed [31]): 3 (weed kill ratio 40% or more, less than 70%); b (directly sown rice) effect on crop grade (directly sown rice [32]): 0 (weed kill ratio 5% or less (practically no effect)); D (crabgrass) weedkilling efficacy grade (crabgrass [33]): 4 (weed kill ratio 70% or more, less than 90%); d (soybean) effect on crop grade (soybean [34]): 0 (weed kill ratio 5% or less (practically no effect)); E (green foxtail) weedkilling efficacy grade (green foxtail [35]): 3 (weed kill ratio 40% or more, less than 70%); d (soybean) effect on crop grade (soybean [36]): 2 (weed kill ratio 20% or more, less than 40%); f (beet) effect on crop grade (beet [37]): 0 (weed kill ratio 5% or less (practically no effect)); C (oval-leafed pondweed) weedkilling efficacy grade (oval-leafed pondweed [38]): 3 (weed kill ratio 40% or more, less than 70%)
2 | CC1=C(c2ccccc2)C(=O)N(C(C)(C)C(=O)Nc2cc(F)ccn2)CO1 [B-2-25] | 1 (weed kill ratio 5% or more, less than 20%) | 4 (weed kill ratio 70% or more, less than 90%) | 5 (weed kill ratio 90% or more, (practically complete withering)) | 5 (weed kill ratio 90% or more, (practically complete withering)) | 5 (weed kill ratio 90% or more, (practically complete withering)) | 5 (weed kill ratio 90% or more, (practically complete withering)) | 5 (weed kill ratio 90% or more, (practically complete withering)) | 2 (weed kill ratio 20% or more, less than 40%) | 3 (weed kill ratio 40% or more, less than 70%) | 5 (weed kill ratio 90% or more, (practically complete withering)) | 4 (weed kill ratio 70% or more, less than 90%) | 3 (weed kill ratio 40% or more, less than 70%) | 5 (weed kill ratio 90% or more, (practically complete withering)) | 0 (weed kill ratio 5% or less (practically no effect)) | 4 (weed kill ratio 70% or more, less than 90%) | 5 (weed kill ratio 90% or more, (practically complete withering)) | 5 (weed kill ratio 90% or more, (practically complete withering)) | 5 (weed kill ratio 90% or more, (practically complete withering)) | 5 (weed kill ratio 90% or more, (practically complete withering)) | 4 (weed kill ratio 70% or more, less than 90%) | f (beet) effect on crop grade (beet [21]): 3 (weed kill ratio 40% or more, less than 70%); E (green foxtail) weedkilling efficacy grade (green foxtail [22]): 5 (weed kill ratio 90% or more, (practically complete withering)); O (catchweed) weedkilling efficacy grade (catchweed [23]): 5 (weed kill ratio 90% or more, (practically complete withering)); P (birds-eye speedwell) weedkilling efficacy grade (birds-eye speedwell [24]): 5 (weed kill ratio 90% or more, (practically complete withering)); M (fig-leafed goosefoot) weedkilling efficacy grade (fig-leafed goosefoot [25]): 4 (weed kill ratio 70% or more, less than 90%); A (barnyard grass) weedkilling efficacy grade (barnyard grass [26]): 5 (weed kill ratio 90% or more, (practically complete withering)); c (corn) effect on crop grade (corn [27]): 3 (weed kill ratio 40% or more, less than 70%); a (transplanted rice) effect on crop grade (transplanted rice): 2 (weed kill ratio 20% or more, less than 40%); A (barnyard grass) weedkilling efficacy grade (barnyard grass [28]): 5 (weed kill ratio 90% or more, (practically complete withering)); B (bulrush) weedkilling efficacy grade (bulrush [29]): 5 (weed kill ratio 90% or more, (practically complete withering)); P (birds-eye speedwell) weedkilling efficacy grade (birds-eye speedwell [30]): 5 (weed kill ratio 90% or more, (practically complete withering)); N (chickweed) weedkilling efficacy grade (chickweed [31]): 4 (weed kill ratio 70% or more, less than 90%); b (directly sown rice) effect on crop grade (directly sown rice [32]): 5 (weed kill ratio 90% or more, (practically complete withering)); D (crabgrass) weedkilling efficacy grade (crabgrass [33]): 5 (weed kill ratio 90% or more, (practically complete withering)); d (soybean) effect on crop grade (soybean [34]): 0 (weed kill ratio 5% or less (practically no effect)); E (green foxtail) weedkilling efficacy grade (green foxtail [35]): 5 (weed kill ratio 90% or more, (practically complete withering)); d (soybean) effect on crop grade (soybean [36]): 3 (weed kill ratio 40% or more, less than 70%); f (beet) effect on crop grade (beet [37]): 2 (weed kill ratio 20% or more, less than 40%); C (oval-leafed pondweed) weedkilling efficacy grade (oval-leafed pondweed [38]): 5 (weed kill ratio 90% or more, (practically complete withering))

Reference: US9738634B2, “Heterocyclic amide compound and herbicide” (SYNGENTA PARTICIPATIONS AG, priority 2013, dated 2017)
